Entries after “also recorded” stand apart in the source; their conditions may differ. Read-outs that look alike come from different tables or passages of the source.
Assays:
[1] = biological target: T1, topoisomerase I cleavage complexes (Homo sapiens, UniProt P11387); test: Salt reversal of topoisomerase I cleavage complexes; assay type: biochemical; conditions: increasing salt concentration
T1 sequence (P11387 1-765): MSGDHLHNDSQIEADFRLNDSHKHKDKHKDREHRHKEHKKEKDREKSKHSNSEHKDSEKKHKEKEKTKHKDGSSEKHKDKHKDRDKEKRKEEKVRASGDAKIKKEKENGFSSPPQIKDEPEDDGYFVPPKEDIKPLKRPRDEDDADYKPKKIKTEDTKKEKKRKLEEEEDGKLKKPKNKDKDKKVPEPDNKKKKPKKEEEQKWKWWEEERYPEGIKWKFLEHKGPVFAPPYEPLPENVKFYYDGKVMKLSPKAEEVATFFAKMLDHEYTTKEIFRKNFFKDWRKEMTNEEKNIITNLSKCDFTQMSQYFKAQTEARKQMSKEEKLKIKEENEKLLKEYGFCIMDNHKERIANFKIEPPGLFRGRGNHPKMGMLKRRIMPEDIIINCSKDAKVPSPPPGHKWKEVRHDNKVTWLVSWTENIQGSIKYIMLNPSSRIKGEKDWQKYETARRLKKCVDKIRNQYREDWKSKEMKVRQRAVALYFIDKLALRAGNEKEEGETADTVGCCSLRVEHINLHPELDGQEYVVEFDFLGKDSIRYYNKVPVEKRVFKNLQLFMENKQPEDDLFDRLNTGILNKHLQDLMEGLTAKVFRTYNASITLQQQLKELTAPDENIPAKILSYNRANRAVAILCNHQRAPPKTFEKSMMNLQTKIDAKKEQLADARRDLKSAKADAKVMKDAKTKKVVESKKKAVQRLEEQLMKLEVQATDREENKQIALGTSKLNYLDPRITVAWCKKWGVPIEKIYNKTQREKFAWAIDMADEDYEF

human topoisomerase II = test: Topoisomerase II-mediated DNA cleavage assay (5'-end-labeled human c-myc DNA); assay type: biochemical
HCT-116 = test: NCI human cancer cell line screen (COMPARE screening), Colon HCT-116; assay type: cell-based; conditions: HCT-116, concentration causing 50% growth inhibition, read-out: Cytotoxicity (G150 in μM) Colon HCT-116
Method in brief: (§1)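 Human cancer cell panel (NCI, ~55 lines, diverse origins) exposed to compound in vitro. Antiproliferative cytotoxicity then recorded line by line.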

SN12C = test: NCI human cancer cell line screen (COMPARE screening), Renal SN12C; assay type: cell-based; conditions: SN12C; concentration causing 50% growth inhibition; read-out: Cytotoxicity (G150 in μM) Renal SN12C
Method in brief: as §1

HOP-62 = test: NCI human cancer cell line screen (COMPARE screening), Lung HOP-62; assay type: cell-based; conditions: HOP-62, concentration causing 50% growth inhibition, read-out: Cytotoxicity (G150 in μM) Lung HOP-62
Method in brief: as §1

[2] = system: approximately 55 different cancer cell lines of diverse tumor origins; test: NCI screen mean graph midpoint over all cell lines tested; assay type: cell-based, human; conditions: for IC50: average GI50 for all cell lines tested (approximately 55), values outside test range taken as 10^-8 or 10^-4 molar, read-out: MGM (mean graph midpoint)
SF-539 = test: NCI human cancer cell line screen (COMPARE screening), CNS SF-539; assay type: cell-based; conditions: SF-539; concentration causing 50% growth inhibition; read-out: Cytotoxicity (G150 in μM) CNS SF-539
Method in brief: as §1

UACC-62 = test: NCI human cancer cell line screen (COMPARE screening), Melanoma UACC-62; assay type: cell-based; conditions: UACC-62, concentration causing 50% growth inhibition, read-out: Cytotoxicity (G150 in μM) Melanoma UACC-62
Method in brief: as §1

MDA-MB-435 = test: NCI human cancer cell line screen (COMPARE screening), Breast MDA-MB-435; assay type: cell-based; conditions: MDA-MB-435, concentration causing 50% growth inhibition, read-out: Cytotoxicity (G150 in μM) Breast MDA-MB-435
Method in brief: as §1

DU-145 = test: NCI human cancer cell line screen (COMPARE screening), Prostate DU-145; assay type: cell-based; conditions: DU-145, concentration causing 50% growth inhibition, read-out: Cytotoxicity (G150 in μM) Prostate DU-145
Method in brief: as §1

supercoiled SV40 DNA = test: SV40 DNA unwinding assay; assay type: biochemical; conditions: supercoiled DNA in the presence of topoisomerase I
Experimental: With some of the compounds (e.g. 27), the activity seemed to increase initially as the concentration was increased, but then it declined at higher concentrations. […] The unwinding assay using supercoiled DNA in the presence of topoisomerase I is a simple procedure to detect DNA intercalation.
After electrophoresis, DNA bands were stained in 10 μg/mL of ethidium bromide and visualized by transillumination with UV light (300 nm).

topoisomerase I = biological target: T2, topoisomerase I (Homo sapiens, UniProt P11387); test: Topoisomerase I-mediated DNA cleavage assay (3'-end-labeled 161 bp pBluescript SK(-) fragment); assay type: biochemical; conditions: for Top 1 Cleavage: relative to the activity of 1 μM camptothecin
T2 sequence (P11387 1-765): T1 sequence (P11387 1-765)
Method in brief: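 A 3′-end ³²P-labeled 161 bp Pvu II/Hind III pBluescript SK(−) fragment was incubated with topoisomerase I and drug for 15 min at 30° C, then stopped with 0.5% SDS. Cleavage products were resolved on a denaturing 16% polyacrylamide/7 M urea gel at 51° C and read by phosphorimaging.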

OVCAR-3 = test: NCI human cancer cell line screen (COMPARE screening), Ovarian OVCAR-3; assay type: cell-based; conditions: Homo sapiens; OVCAR-3; concentration causing 50% growth inhibition; read-out: Cytotoxicity (G150 in μM) Ovarian OVCAR-3
Method in brief: as §1

SMILES: COc1cc2c3c(n(C)c(=O)c2cc1OC)-c1cc2c(cc1C3=O)OCO2 [Compound 1, reference compound]
- reversal of induced cleavage sites by salt treatment [1]: reversed by salt treatment
- induction of topoisomerase II cleavage complexes (human topoisomerase II): no effect
- IC50 (HCT-116): 35 µM
- IC50 (SN12C): 68 µM
- IC50 (HOP-62): 1.3 µM
- IC50 [2]: 20 µM
- IC50 (SF-539): 41 µM
- IC50 (UACC-62): 4.2 µM
- IC50 (MDA-MB-435): 96 µM
- IC50 (DU-145): 37 µM
- DNA unwinding (supercoiled SV40 DNA): did not produce detectable DNA unwinding; also recorded: does not appear to unwind DNA
- activity in the topoisomerase I cleavage assay (in words) (topoisomerase I): induce DNA cleavage in the presence of topoisomerase I; also recorded: good activity
- Top 1 Cleavage (topoisomerase I): ++ (those compounds having greater than 50% of the activity of 1 μM camptothecin)

SMILES: COc1cc2c3c(n(CCCCO)c(=O)c2cc1OC)-c1cc2c(cc1C3=O)OCO2 [Compound 19a, 5,6-Dihydro-5,11-diketo-6-(4-hydroxybut-1-yl)-2,3-dimethoxy-8,9-methylenedioxy-(11H)indeno[1,2-c]isoquinoline]
- reversal of induced cleavage sites by salt treatment [1]: reversed by salt treatment
- induction of topoisomerase II cleavage complexes (human topoisomerase II): no effect
- IC50 (HCT-116; Homo sapiens): 1.4 µM
- IC50 (OVCAR-3): 3.7 µM
- IC50 (HOP-62; Homo sapiens): 0.7 µM
- IC50 ([2]; Homo sapiens): 3.2 µM
- cytotoxicity (MGM) relative to lead compound 1 ([2]; comparison in words): lower MGM than the lead compound 1
- melting point: 304 to 308 °C
- IC50 (UACC-62; Homo sapiens): 0.99 µM
- IC50 (MDA-MB-435; Homo sapiens): 10 µM
- IC50 (DU-145; Homo sapiens): 0.36 µM
- DNA unwinding (supercoiled SV40 DNA): does not appear to unwind DNA
- activity in the topoisomerase I cleavage assay (in words) (topoisomerase I): rival the topoisomerase activity of 1
- Top 1 Cleavage (topoisomerase I): + (those compounds having between 20% and 50% of the activity of 1 μM camptothecin)

SMILES: COC1=CC2=C(CN1OC)C1=C(c3cc4c(cc3C1=O)OCO4)C(CCCC(C)O)C2=O (stereo not shown) [Compound 19b, 5,6-Dihydro-6-(4-hydroxypent-1-yl)-5,11-diketo-2,3-dimethoxy-8,9-methylenedioxy-11H-indenoisoquinoline]
- melting point: 288 to 290 °C

Reference: patent US6509344B1, “Indenoisoquinolines as antineoplastic agents” (The United States of America as represented by the …, priority 1998, dated 2003)
